These results are taken from patent US20230048132A1, “CYCLIN-DEPENDENT KINASE INHIBITORS” (SPV THERAPEUTICS INC., priority 2018, published 2023).

Several values for one entry are separate records, joined by “and”; a condition that tells them apart may be missing. Identical values can stand only once. Like-named read-outs stand apart in the source and are kept apart here. Bounds are passed on as bounds.

One series deals with MAXFTN MDA-MB-231 (ER−). The series can be described thus: 2D cell proliferation assay (CellTiter-Blue). Type of series: cell-based. The note with it: Homo sapiens, 72 h, three days of treatment, read-out: abs. IC50. Here is the method: (§1) Viability of the cells was analyzed by using the CellTiter-Blue® Cell Viability Assay (Promega), and was performed according to manufacturer's instructions. Briefly, cells were harvested from exponential phase cultures (Chapter 6.6), counted and plated in 96-well flat-bottom microtiter plates at a cell density of 4,000-60,000 cells/well in a volume of 140 μl per well. After a 24 hours recovery period, 10 μL cell culture medium (six control wells/plate) or culture medium with test compound were added (Chapter 6.2). The compounds were applied at five concentrations in full-log increments up to 100 μM in duplicate. Cultures were incubated at 37° C. and 5% CO2 in a humidified atmosphere for another three days. After three days of treatment, 20 μl/well CellTiter-Blue® reagent was added. Following incubation with CellTiter-Blue® reagent for up to four hours, fluorescence (FU) was measured by using the Enspire Multimode Plate Reader (excitation λ=570 nm, emission λ=600 nm). For calculations, the mean values of duplicate/sextuplicate (untreated control) data were used.
(§2) An assay was considered fully evaluable if the following quality control criteria were fulfilled: • control/background ratio>3.0-Z′-factor calculated within the assay plate>0.5 [7]—coefficient of variation in the growth control wells <30%
(§3) Drug effects were expressed in terms of the percentage of the fluorescence signal, obtained by comparison of the mean signal in the treated wells with the mean signal of the untreated controls (expressed by the test-versus-control value, T/C-value [%]):
(§4) IC values are reported as relative IC50 values and absolute IC50 and IC70 values. […] The absolute IC70 value gives the concentration of the test compound that achieves T/C=30%. The relative IC50 value is the concentration of test compound that gives a response halfway between the top and bottom plateau of the sigmoidal concentration-response curve (inflection point of the curve). Calculation was done by 4parameter non-linear curve fit (Oncotest Data Warehouse Software).
(§5) If an IC50 or IC70 value could not be determined within the examined dose range (because a compound was either too active or lacked activity), the lowest or highest concentration studied was used for calculation of the geometric mean value.

Another series has as its system LEXFAL MOLT-4. As to the kind of experiment: 2D cell proliferation assay (CellTiter-Blue). Particulars: Homo sapiens, 72 h, three days of treatment, read-out: abs. IC50. Type of series: cell-based. Here is the method:
as §1, §2, §3, §4, §5
(Alamar Blue is a resazurin reagent that responds to reducing activity.)

The test system of the next series is MEXF WM-266-4. As to the kind of experiment: 2D cell proliferation assay (CellTiter-Blue). The class given is cell-based. The note with it: Homo sapiens, 72 h, three days of treatment, read-out: abs. IC50. Here is the method:
as §1, §2, §3, §4, §5

For the next series, the system named is MAXFLB MCF7 (ER+). As to the kind of experiment: 2D cell proliferation assay (CellTiter-Blue). Particulars: Homo sapiens, 72 h, three days of treatment, read-out: abs. IC50. Type of series: cell-based. Here is the method:
as §1, §2, §3, §4, §5

A further series concerns LXFL NCl-H1299. The series can be described thus: 2D cell proliferation assay (CellTiter-Blue). The note with it: 72 h, three days of treatment, read-out: abs. IC50. The class given is cell-based. Here is the method:
as §1, §2, §3, §4, §5

The subject of a further series is MAXFTN ZR-75-1 (ER+). The series can be described thus: 2D cell proliferation assay (CellTiter-Blue). Type of series: cell-based. Particulars: Homo sapiens, 72 h, three days of treatment, read-out: abs. IC50. Here is the method:
as §1, §2, §3, §4, §5

A further series has as its system LXFA A549. As to the kind of experiment: 2D cell proliferation assay (CellTiter-Blue). Type of series: cell-based. Particulars: Homo sapiens, 72 h, three days of treatment, read-out: abs. IC50. Here is the method:
as §1, §2, §3, §4, §5

In a further series the test system is LEXFAM MV4-11. As to the kind of experiment: 2D cell proliferation assay (CellTiter-Blue). Type of series: cell-based. Particulars: Homo sapiens, 72 h, three days of treatment, read-out: abs. IC50. Here is the method:
as §1, §2, §3, §4, §5

In another series the target is T1, CDK2-CYCLINA (Homo sapiens, UniProt P24941).
T1 construct: purchased Millipore
As to the kind of experiment: CDK inhibition assay (microfluidic LabChip, IC50 format). Type of series: biochemical.

In the next series the target is T2, CDK9-CYCLINT1 (Homo sapiens, UniProt P50750).
T2 construct: purchased Carna
T2 sequence (P50750 whole entry): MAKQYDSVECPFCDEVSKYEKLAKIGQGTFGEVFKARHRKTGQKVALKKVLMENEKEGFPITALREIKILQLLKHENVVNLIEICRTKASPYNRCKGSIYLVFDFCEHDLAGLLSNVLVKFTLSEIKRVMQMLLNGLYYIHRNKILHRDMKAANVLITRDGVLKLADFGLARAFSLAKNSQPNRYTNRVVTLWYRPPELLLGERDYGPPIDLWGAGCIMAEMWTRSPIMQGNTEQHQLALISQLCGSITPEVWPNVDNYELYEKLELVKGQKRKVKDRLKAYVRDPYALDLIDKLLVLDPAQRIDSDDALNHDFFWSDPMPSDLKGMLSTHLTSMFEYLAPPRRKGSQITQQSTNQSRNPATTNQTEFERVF
T2 sequence (O60563 whole entry partner): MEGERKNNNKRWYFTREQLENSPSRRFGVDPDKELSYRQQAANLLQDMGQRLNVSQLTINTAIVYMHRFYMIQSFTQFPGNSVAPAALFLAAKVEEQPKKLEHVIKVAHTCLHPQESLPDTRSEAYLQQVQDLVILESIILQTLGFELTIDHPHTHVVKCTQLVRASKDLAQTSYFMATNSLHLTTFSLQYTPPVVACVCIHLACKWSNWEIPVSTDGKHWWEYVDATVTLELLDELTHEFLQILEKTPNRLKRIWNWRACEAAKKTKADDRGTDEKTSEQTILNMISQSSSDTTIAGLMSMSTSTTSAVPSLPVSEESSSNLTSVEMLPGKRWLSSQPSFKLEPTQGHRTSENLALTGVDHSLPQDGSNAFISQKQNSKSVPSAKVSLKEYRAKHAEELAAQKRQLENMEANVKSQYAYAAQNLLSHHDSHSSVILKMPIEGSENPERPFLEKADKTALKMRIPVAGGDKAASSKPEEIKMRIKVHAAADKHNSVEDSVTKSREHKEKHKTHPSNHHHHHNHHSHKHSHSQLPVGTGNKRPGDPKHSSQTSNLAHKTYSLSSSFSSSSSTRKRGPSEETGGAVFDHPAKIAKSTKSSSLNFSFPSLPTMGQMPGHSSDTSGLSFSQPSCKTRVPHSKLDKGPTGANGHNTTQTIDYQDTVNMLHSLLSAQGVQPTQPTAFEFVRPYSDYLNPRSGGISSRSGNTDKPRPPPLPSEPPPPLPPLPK
The description is as above. The class given is biochemical.

In the next series the target is CDK4-CYCLIND1 (Homo sapiens, UniProt P11802). The series is described as above.
Chain of CDK4-CYCLIND1 (P11802 whole entry): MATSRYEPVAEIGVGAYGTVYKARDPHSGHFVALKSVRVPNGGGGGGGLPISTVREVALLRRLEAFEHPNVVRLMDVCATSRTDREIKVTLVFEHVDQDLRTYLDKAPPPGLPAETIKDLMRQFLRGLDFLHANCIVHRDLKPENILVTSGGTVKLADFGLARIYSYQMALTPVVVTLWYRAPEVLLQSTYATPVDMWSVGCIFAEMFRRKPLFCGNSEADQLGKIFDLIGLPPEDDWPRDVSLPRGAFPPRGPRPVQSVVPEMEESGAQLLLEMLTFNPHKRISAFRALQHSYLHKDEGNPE
Chain of CDK4-CYCLIND1 (P24385 whole entry partner): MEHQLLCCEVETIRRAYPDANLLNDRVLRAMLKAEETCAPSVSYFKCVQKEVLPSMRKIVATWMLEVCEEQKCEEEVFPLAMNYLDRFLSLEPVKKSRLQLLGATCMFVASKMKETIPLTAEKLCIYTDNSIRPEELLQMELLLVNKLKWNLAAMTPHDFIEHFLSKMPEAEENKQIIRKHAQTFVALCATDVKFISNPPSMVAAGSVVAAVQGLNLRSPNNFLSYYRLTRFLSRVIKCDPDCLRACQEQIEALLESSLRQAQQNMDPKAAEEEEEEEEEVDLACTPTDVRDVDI
A further series concerns the target T3, CDK6-CYCLIND3 (Homo sapiens, UniProt Q00534).
T3 construct: purchased Carna
The series is described as above. Type of series: biochemical.

The test system of another series is all cell lines tested. As to the kind of experiment: 2D cell proliferation assay, geometric mean over the cell line panel. The class given is cell-based. The note with it: Table 5 lower part; geometric mean over the 8-line panel; read-out: Geomean abs. IC50 value. Here is the method: as §1, §4, §5
The overall potency of a compound was determined by the geometric mean IC50/IC70 values of all individual IC50/IC70 values. In the heatmap representation of IC50 and IC70 values, the distribution of the IC50 or IC70 values obtained for a test compound in the individual cell lines is given in relation to the geometric mean IC50 or IC70 value, obtained over all PDX models tested. The individual IC values range from 1/32-fold geometric mean IC (corresponding to very potent compound activity or high tumor sensitivity) to 32-fold geometric mean IC (corresponding to lack of compound activity or tumor resistance). The heatmap presentation, therefore, represents an antiproliferative “fingerprint” profile of a test compound.

A further series addresses T4, CDK2-CYCLINE (Homo sapiens, UniProt P24941).
T4 construct: purchased Millipore
As to the kind of experiment: CDK inhibition assay (microfluidic LabChip, IC50 format). The class given is biochemical. Particulars: Table 3; purified enantiomers; read-out: CDK2-E (E1/E2).

Series [1] is described as follows: Pharmacokinetics after IV bolus. Type of series: in vivo. Particulars: rat, plasma; rats; IV bolus 30 mg/kg; N = 3.
Description: (§6) Nonclinical pharmacokinetic (PK) parameters of lead CDK4/6/9 inhibitors were determined in an intravenous (IV) and oral study (p.o.) conducted in rats. Lead compounds were each administered as a single oral dose at 100 mg/kg or by IV bolus via the caudal vein at the dose of 30 mg/kg. Blood samples were collected at 0.25, 0.5, 1, 2, 4, 8, 12, and 24 hours post i.v. administration, and at 1, 2, 4, 8, 24 and 48 hours post oral administration. Plasma was processed for drug concentration analysis using a validated LCMS/MS method, and PK parameters were calculated by using WinNonlin.
Series [2] in a line: Pharmacokinetics after oral administration. The class given is in vivo. Particulars: rat, plasma, rats; for bioavailability: oral 100 mg/kg versus IV 30 mg/kg, read-out: BIOAVAILABILITY F; for AUC / Cmax / MRT / half-life: oral administration 100 mg/kg, N = 3.
Description: as §6
For another series, the target named is CDK7 CyclinH (Homo sapiens, UniProt P50613). As to the kind of experiment: CDK inhibition assay (microfluidic LabChip, IC50 format). The class given is biochemical. Particulars: Table 4a.
Chain of CDK7 CyclinH (P50613 whole entry): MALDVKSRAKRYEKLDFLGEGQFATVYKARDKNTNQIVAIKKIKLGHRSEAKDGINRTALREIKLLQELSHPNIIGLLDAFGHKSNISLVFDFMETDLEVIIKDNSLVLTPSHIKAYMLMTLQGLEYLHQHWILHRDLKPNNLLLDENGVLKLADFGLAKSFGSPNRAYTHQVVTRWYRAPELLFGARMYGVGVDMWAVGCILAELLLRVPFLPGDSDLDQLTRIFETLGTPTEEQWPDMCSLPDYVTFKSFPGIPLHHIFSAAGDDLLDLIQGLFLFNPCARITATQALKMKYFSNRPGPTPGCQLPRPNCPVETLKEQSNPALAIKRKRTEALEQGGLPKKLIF
Chain of CDK7 CyclinH (P51946 whole entry partner): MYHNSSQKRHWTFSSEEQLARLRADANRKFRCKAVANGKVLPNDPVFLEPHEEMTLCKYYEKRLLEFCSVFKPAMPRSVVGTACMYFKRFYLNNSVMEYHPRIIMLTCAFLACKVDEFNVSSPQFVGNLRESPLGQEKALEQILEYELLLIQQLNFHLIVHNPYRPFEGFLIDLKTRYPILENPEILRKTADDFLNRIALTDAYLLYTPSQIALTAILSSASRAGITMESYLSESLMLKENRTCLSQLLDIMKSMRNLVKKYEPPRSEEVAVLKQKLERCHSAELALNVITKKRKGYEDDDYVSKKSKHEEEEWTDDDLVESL
Chain of CDK7 CyclinH (P51948 whole entry partner): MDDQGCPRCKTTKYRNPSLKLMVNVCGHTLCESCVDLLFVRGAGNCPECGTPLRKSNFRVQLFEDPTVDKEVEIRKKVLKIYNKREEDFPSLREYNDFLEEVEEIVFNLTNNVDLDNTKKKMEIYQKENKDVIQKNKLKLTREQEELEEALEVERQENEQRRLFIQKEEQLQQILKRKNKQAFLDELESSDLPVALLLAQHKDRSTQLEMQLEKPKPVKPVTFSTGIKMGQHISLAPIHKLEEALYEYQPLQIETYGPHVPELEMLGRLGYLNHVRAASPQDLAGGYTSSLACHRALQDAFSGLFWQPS
[3] abbreviates: Table 3, purified enantiomers, read-out: CDK2-A (E1/E2).
[4] abbreviates: Table 3, purified enantiomers, read-out: CDK9-T (E1/E2).
Setting [5] is: CDK4 (E1/E2), Table 3, purified enantiomers.
Setting [6] is: Table 3, purified enantiomers, read-out: CDK6 (E1/E2).
The mark [7] stands for this setting: Table 4a, read-out: CDK2 CyclinA IC50.
Where [8] appears, read: Table 4a, read-out: CDK9 CyclinT1 IC50.
The mark [9] stands for this setting: CDK4 CyclinD1 IC50, Table 4a, a second value in parentheses for some compounds.
The mark [10] stands for this setting: Table 4a, read-out: CDK6 CyclinD3 IC50.

T3 sequence (Q00534 whole entry): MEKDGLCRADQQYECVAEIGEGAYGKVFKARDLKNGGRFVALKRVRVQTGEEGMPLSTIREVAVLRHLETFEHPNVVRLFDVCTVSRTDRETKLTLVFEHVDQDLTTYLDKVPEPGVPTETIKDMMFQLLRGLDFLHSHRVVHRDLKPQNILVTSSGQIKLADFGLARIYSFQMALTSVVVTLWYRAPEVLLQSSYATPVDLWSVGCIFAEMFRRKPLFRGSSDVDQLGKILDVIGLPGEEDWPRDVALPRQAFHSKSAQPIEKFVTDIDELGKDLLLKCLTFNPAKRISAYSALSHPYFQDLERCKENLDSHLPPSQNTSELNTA
T3 sequence (P30281 whole entry partner): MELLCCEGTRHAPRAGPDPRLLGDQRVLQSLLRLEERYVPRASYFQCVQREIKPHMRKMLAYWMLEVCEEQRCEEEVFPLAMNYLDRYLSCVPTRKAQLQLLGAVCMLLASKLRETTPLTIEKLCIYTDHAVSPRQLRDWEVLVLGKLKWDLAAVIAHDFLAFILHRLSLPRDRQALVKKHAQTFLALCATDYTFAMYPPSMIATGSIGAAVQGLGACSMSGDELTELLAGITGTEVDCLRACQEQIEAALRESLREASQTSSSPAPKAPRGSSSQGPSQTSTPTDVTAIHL

On to `O=C1NCC[C@@]12Cc1cnc(Nc3ccc(N4CCNCC4)c(F)c3)nc1N(C1CCCC1)C2=O` [Example D50, (S)-8-cyclopentyl-2-((3-fluoro-4-(piperazin-1-yl)phenyl)amino)-5,8-dihydro-7H-spiro[pyrido[2,3-d]pyrimidine-6,3′-pyrrolidine]-2′,7-dione], for which the IC50 in the series with MAXFTN MDA-MB-231 (ER−) stood at 150 nM; in the series on LEXFAL MOLT-4 it was 101 nM; in the series on MEXF WM-266-4, 46 nM; with MAXFLB MCF7 (ER+), 80 nM; in the series with LXFL NCl-H1299, 187 nM; in the series with MAXFTN ZR-75-1 (ER+), 23300 nM. Moreover, the IC50 in the series with LXFA A549 was 338 nM; in the series with LEXFAM MV4-11, ≤ 10 nM; on CDK2-CYCLINA (setting [3]), 29.1 nM; at CDK9-CYCLINT1 (setting [4]) it was 4.37 nM; against CDK4-CYCLIND1 (setting [5]), 0.78 nM; on CDK6-CYCLIND3 (setting [6]) it was 1.29 nM. The IC50 with all cell lines tested was 173 nM; on CDK2-CYCLINE, 62.4 nM.
Consider `CN1CCN(c2ccc(Nc3ncc4c(n3)N(C3CCCC3)C(=O)[C@]3(CCNC3=O)C4)cc2F)CC1` [Example D52, (S)-8-cyclopentyl-2-((3-fluoro-4-(4-methylpiperazin-1-yl)phenyl)amino)-5,8-dihydro-7H-spiro[pyrido[2,3-d]pyrimidine-6,3′-pyrrolidine]-2′,7-dione], for which the IC50 worked out at 318 nM in the series with MAXFTN MDA-MB-231 (ER−); 509 nM in the series on MEXF WM-266-4; 122 nM with MAXFLB MCF7 (ER+); 151 nM in the series with LXFL NCl-H1299; 925 nM in the series with MAXFTN ZR-75-1 (ER+); 257 nM with LXFA A549. Besides, the IC50 in the series on LEXFAM MV4-11 is ≤ 10 nM; on CDK2-CYCLINA (setting [3]) it was 53.1 nM; on CDK9-CYCLINT1 (setting [4]), 5.75 nM; against CDK4-CYCLIND1 (setting [5]), 0.904 nM; on CDK6-CYCLIND3 (setting [6]), 1.94 nM; in the series with all cell lines tested it was 184 nM. At CDK2-CYCLINE, the IC50 stood at 101 nM. Besides, the Cmax in [1] was 6360 ng/mL; in [2] it was 4350 ng/mL. The clearance in [1] is 19.3 mL/min/kg. Besides, the half-life in series [1] was 267 min; in [2] it was 426 min. The bioavailability in [2] amounted to 43.9%. Besides, in series [2], the AUC is 37700 ng·h/mL. In [2], the MRT is 5.48 h.
Take `CC(C)N1CCN(c2ccc(Nc3ncc4c(n3)N(C3CCCC3)C(=O)[C@]3(CCNC3=O)C4)cc2)CC1` [Example D145, (S)-8-cyclopentyl-2-((4-(4-isopropylpiperazin-1-yl)phenyl)amino)-5,8-dihydro-7H-spiro[pyrido[2,3-d]pyrimidine-6,3′-pyrrolidine]-2′,7-dione]: the IC50 at CDK7 CyclinH was found to be 153 nM; in the series on MAXFTN MDA-MB-231 (ER−), 300 nM; with LEXFAL MOLT-4, 84 nM; with MEXF WM-266-4, 47 nM; in the series with MAXFLB MCF7 (ER+) it was 88 nM; with LXFL NCl-H1299, 108 nM. Moreover, the IC50 was ≥ 100000 nM in the series with MAXFTN ZR-75-1 (ER+); 148 nM in the series with LXFA A549; ≤ 10 nM in the series with LEXFAM MV4-11; 21.7 nM at CDK2-CYCLINA (setting [7]); 5.02 nM at CDK9-CYCLINT1 (setting [8]); 0.784 nM on CDK4-CYCLIND1 (setting [9]). For the same compound, the results for the IC50 on CDK6-CYCLIND3 (setting [10]) and with all cell lines tested were 1.65 nM and 189 nM, respectively. The Cmax in series [1] was determined as 7730 ng/mL; in series [2], 4470 ng/mL. This compound also gave a clearance in series [1] of 35.2 mL/min/kg. The half-life in series [1] is 116 min; in [2], 336 min. The bioavailability in series [2] turned out to be 43.8%. This compound gave an AUC in series [2] of 21500 ng·h/mL. This compound also yielded an MRT in series [2] of 4.37 h.
Consider `CN(C)[C@@H]1CCN(c2ccc(Nc3ncc4c(n3)N(C3CCCC3)C(=O)[C@]3(CCNC3=O)C4)cc2F)C1` [Example D176, (S)-8-cyclopentyl-2-((4-((R)-3-(dimethylamino)pyrrolidin-1-yl)-3-fluorophenyl)amino)-5,8-dihydro-7H-spiro[pyrido[2,3-d]pyrimidine-6,3′-pyrrolidine]-2′,7-dione], for which the IC50 stood at 126 nM at CDK7 CyclinH; 172 nM with MAXFTN MDA-MB-231 (ER−); 97 nM in the series on LEXFAL MOLT-4; 548 nM in the series with MEXF WM-266-4; 62 nM in the series on MAXFLB MCF7 (ER+); 229 nM with LXFL NCl-H1299. Also, the IC50 is 648 nM in the series with MAXFTN ZR-75-1 (ER+); 440 nM in the series on LXFA A549; 28 nM in the series with LEXFAM MV4-11; 33.3 nM on CDK2-CYCLINA (setting [7]); 2.73 nM on CDK9-CYCLINT1 (setting [8]); 1.12 nM and 0.64 nM at CDK4-CYCLIND1 (setting [9]). Further, the IC50 was 2.07 nM on CDK6-CYCLIND3 (setting [10]) and 179 nM in the series with all cell lines tested.

In general, Cmax refers to the peak of the concentration-time curve. Broadly, the clearance is a measure of how efficiently the substance is removed, as volume per time. Usually half-life stands for the time needed for the level to fall by half in the phase considered. Low readings indicate rapid decline, high ones slow decline. By bioavailability is commonly meant dose-corrected exposure relative to a reference, in per cent. As usually defined, the AUC is the area under the concentration-time curve, a measure of exposure. What is called MRT is a mean duration of stay, worked out from the concentration-time curve.
